# Measurements published in patent US20210198277A1, “AMINE-SUBSTITUTED ARYL OR HETEROARYL COMPOUNDS” (Epizyme, Inc., priority 2016, published 2021).
# Tests used:
# human EHMT2 913-1193 = target: T1, human EHMT2 913-1193 (Homo sapiens, UniProt Q96KQ7); assay: EHMT2 enzyme assay on histone peptide substrate (EHMT2 PEP); type: biochemical; details: Table VI; read-out: EHMT2 PEP IC50
# T1 construct: recombinant purified human EHMT2 913-1193, Viva; purchased Viva
# T1 sequence (Q96KQ7 913-1193): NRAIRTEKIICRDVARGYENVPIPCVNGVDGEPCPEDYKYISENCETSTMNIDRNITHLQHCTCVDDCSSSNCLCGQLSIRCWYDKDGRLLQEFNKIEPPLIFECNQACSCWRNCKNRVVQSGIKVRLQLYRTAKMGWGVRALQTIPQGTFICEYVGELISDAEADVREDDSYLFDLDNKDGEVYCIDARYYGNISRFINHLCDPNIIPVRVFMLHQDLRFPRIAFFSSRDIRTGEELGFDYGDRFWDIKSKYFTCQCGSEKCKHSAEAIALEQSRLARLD
# Outline: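 Inhibition is measured as reduced tritium incorporation into a biotinylated histone peptide from ^3H-SAM. The enzyme (0.031 nM) sees compound for 30 minutes before a 60-minute room-temperature reaction, which unlabeled SAM quenches prior to streptavidin Flashplate capture.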
# EHMT1 = target: T2, EHMT1 (Homo sapiens, UniProt Q9H9B1); assay: EHMT1 enzyme assay on peptide substrate (EHMT1 PEP); type: biochemical; details: Table VI; read-out: EHMT1 PEP IC50
# T2 sequence (Q9H9B1 1-1298): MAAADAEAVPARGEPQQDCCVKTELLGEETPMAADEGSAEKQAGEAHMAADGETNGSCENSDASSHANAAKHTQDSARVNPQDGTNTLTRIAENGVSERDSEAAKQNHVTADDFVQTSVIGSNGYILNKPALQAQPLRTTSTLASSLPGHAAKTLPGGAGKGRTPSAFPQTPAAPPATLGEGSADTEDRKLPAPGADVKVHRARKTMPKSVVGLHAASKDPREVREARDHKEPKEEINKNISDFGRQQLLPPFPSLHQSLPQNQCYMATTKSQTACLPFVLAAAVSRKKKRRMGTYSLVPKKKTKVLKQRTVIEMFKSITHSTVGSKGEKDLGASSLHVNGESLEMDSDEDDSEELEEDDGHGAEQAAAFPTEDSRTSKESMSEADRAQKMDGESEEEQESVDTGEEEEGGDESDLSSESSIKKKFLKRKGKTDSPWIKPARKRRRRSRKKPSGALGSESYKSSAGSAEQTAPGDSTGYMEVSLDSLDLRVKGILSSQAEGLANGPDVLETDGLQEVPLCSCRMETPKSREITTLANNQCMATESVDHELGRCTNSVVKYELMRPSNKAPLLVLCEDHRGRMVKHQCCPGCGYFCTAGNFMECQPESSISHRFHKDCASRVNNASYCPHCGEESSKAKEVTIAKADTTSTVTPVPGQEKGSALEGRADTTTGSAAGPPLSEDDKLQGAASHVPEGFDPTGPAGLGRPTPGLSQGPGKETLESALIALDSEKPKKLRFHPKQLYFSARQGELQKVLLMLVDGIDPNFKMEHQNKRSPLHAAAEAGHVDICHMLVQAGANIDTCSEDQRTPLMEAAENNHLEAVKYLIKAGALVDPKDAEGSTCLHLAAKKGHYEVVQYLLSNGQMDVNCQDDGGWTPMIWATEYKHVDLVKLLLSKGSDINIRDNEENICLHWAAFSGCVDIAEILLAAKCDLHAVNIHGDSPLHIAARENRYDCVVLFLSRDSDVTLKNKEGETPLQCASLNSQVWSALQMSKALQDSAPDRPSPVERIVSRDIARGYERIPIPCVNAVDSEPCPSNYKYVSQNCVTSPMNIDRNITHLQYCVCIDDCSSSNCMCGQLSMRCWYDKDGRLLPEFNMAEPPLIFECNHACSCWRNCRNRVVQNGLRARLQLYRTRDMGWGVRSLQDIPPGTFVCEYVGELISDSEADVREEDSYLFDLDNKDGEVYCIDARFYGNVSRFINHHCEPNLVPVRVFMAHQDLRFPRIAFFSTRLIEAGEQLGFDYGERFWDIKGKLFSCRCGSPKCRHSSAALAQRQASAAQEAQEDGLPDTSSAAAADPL
IC50 (human EHMT2 913-1193) [µM],IC50 (EHMT1) [µM],Structure (SMILES)
< 0.1,< 0.1,"CNc1cc(C)nc(Nc2ccc(OC)c(OCC(O)CN3CCCC3)c2)n1 (stereo in doubt) [Compound 906, (2S)-1-(2-methoxy-5-[[4-methyl-6-(methylamino)pyrimidin-2-yl]amino]phenoxy)-3-(pyrrolidin-1-yl)propan-2-ol]"
> 10,> 10,COc1cnc(Nc2cccc3[nH]nnc23)cc1OCCCN1CCCC1 [Compound 619]
> 10,> 10,CCN1CC(COc2cc(Nc3cccn4cnnc34)ncc2OC)C1 [Compound 620]
> 10,1 to 10,CNc1cc(C)nc(Nc2c[nH]c(=O)c(OCCCN3CCCC3)c2)n1 [Compound 621]
1 to 10,1 to 10,CNc1cc(C)nc(Nc2cc(OCCCN3CCCC3)c3nncn3c2)n1 [Compound 622]
1 to 10,1 to 10,CNc1cc(C)nc(Nc2cc(OCCCN3CCCC3)c3ncnn3c2)n1 [Compound 623]
0.1 to 1,< 0.1,CNc1cc(C)nc(Nc2cc(OCCCN3CCCC3)c3[nH]nnc3c2)n1 [Compound 624]
< 0.1,< 0.1,COc1cc2c(C3CCN(C)CC3)cc(N3CCCC3)nc2cc1OCCCN1CCCC1 [Compound 625]
< 0.1,< 0.1,COc1cc2c(C3CCN([C@H]4CCOC4)CC3)cc(C)nc2cc1OCCCN1CCCC1 [Compound 864]
< 0.1,< 0.1,CCNc1cc(C2CCOCC2)c2cc(OC)c(OCCCN3CCCC3)cc2n1 [Compound 865]
< 0.1,< 0.1,CNc1cc(C2CCN([C@@H]3CCOC3)CC2)c2cc(OC)c(OCCCN3CCCC3)cc2n1 [Compound 866]
< 0.1,< 0.1,CNc1cc(C2CCN([C@H]3CCOC3)CC2)c2cc(OC)c(OCCCN3CCCC3)cc2n1 [Compound 867]
> 10,> 10,COc1ccc(Nc2nc(C)cc(C3CCOCC3)n2)cc1OCCCN1CCCC1 [Compound 870]
> 10,> 10,CNc1cc(C)nc(Nc2ccc(OC)c(C(=O)NCc3ccccc3)c2)n1 [Compound 871]
> 10,> 10,CNc1cc(C)nc(Nc2ccc(OC)c(C(=O)NC3CCN(C)CC3)c2)n1 [Compound 873]
> 10,> 10,CNc1cc(C)nc(Nc2ccc(CNC(=O)c3ccccc3)c(OC)c2)n1 [Compound 876]
> 10,> 10,CNc1cc(C)nc(Nc2ccc(C(=O)NCc3ccccc3)c(OC)c2)n1 [Compound 877]
0.1 to 1,0.1 to 1,CNc1cc(C)nc(Nc2cnc(OC)c(OC[C@@H](O)CN3CCCC3)c2)n1 [Compound 881]
0.1 to 1,0.1 to 1,CNc1cc(C)nc(Nc2cnc(OC)c(OC[C@H](O)CN3CCCC3)c2)n1 [Compound 882]
> 10,> 10,COc1ncc(Nc2nc(C)cc(NCC3COC3)n2)cc1OC[C@@H](O)CN1CCCC1 [Compound 883]
> 10,> 10,COc1ncc(Nc2nc(C)cc(NCC3COC3)n2)cc1OC[C@H](O)CN1CCCC1 [Compound 884]
1 to 10,1 to 10,CNc1cc(C)nc(Nc2cc(OC[C@@H](O)CN3CCCC3)c(OC)cn2)n1 [Compound 885]
1 to 10,1 to 10,CNc1cc(C)nc(Nc2cc(OC[C@H](O)CN3CCCC3)c(OC)cn2)n1 [Compound 886]
0.1 to 1,0.1 to 1,CNC(=O)CCNc1cc(C)nc(Nc2cnc(OC)c(OCCCN3CCCC3)c2)n1 [Compound 887]
0.1 to 1,0.1 to 1,CNC(=O)N1CC(CNc2cc(C)nc(Nc3cnc(OC)c(OCCCN4CCCC4)c3)n2)C1 [Compound 888]
> 10,> 10,CNc1cc(C)nc(Nc2ccc(OC)c(OCCCc3nc(Cl)c[nH]3)c2)n1 [Compound 890]

IC50 (human EHMT2 913-1193) [µM],IC50 (EHMT1) [µM],Structure (SMILES)
> 10,> 10,CNc1cc(C)nc(Nc2ccc(OC)c(OCCCc3nc(Cl)cn3C)c2)n1 [Compound 891]
< 0.1,< 0.1,CNS(=O)(=O)CCNc1cc(C)nc(Nc2ccc(OC)c(OCCCN3CCCC3)c2)n1 [Compound 892]
0.1 to 1,< 0.1,COc1ccc(Nc2nc(C)cc(NCCS(=O)(=O)N(C)C)n2)cc1OCCCN1CCCC1 [Compound 893]
0.1 to 1,0.1 to 1,COc1cnc(Nc2cc(NCC3COC3)cnn2)cc1OCCCN1CCCC1 [Compound 894]
> 10,> 10,COc1cc2cc(C#N)c(C)nc2cc1OCCCN1CCCC1 [Compound 895]
> 10,> 10,COc1cc2cc(F)c(C)nc2cc1OCCCN1CCCC1 [Compound 896]
> 10,1 to 10,CNc1nc2cc(OCCCN3CCCC3)c(OC)cc2cc1F [Compound 897]
> 10,> 10,CNC(=O)C1CCN(c2cc3nc(NC)cc(C)c3cc2OC)C1 (centres unmarked) [Compound 900]
< 0.1,< 0.1,CNc1cc(C2CCOCC2)c2cc(OC)c(OCCCN3CC(O)C3)cc2n1 [Compound 902]
1 to 10,0.1 to 1,CNc1nc2cc(OCCCN3CCCC3)c(OC)cc2cc1Cl [Compound 903]
> 10,1 to 10,CNc1cc(C)nc(Nc2ccc(OC)c(C#CCN3CCOCC3)c2)n1 [Compound 904]
0.1 to 1,0.1 to 1,CNc1cc(C)nc(Nc2ccc(OC)c(OC[C@@H](O)CN3CCCC3)c2)n1 [Compound 905]
1 to 10,0.1 to 1,CNc1ccnc(Nc2ccc(OC)c(OC[C@@H](O)CN3CCC3)c2)n1 [Compound 907]
< 0.1,< 0.1,CNc1ccnc(Nc2ccc(OC)c(OC[C@H](O)CN3CCC3)c2)n1 [Compound 908]
0.1 to 1,< 0.1,CNc1ccnc(Nc2cnc(OC)c(OC[C@@H]3CCN(C)C3)c2)n1 [Compound 912]
0.1 to 1,< 0.1,CNc1ccnc(Nc2cnc(OC)c(OCCCN3CCC3)c2)n1 [Compound 914]
0.1 to 1,< 0.1,CNCCCOc1cc(Nc2nccc(NC)n2)ccc1OC [Compound 916]
1 to 10,0.1 to 1,CNCCCOc1cc(Nc2nccc(NC)n2)cnc1OC [Compound 917]
1 to 10,0.1 to 1,CNC[C@@H](O)COc1cc(Nc2nccc(NC)n2)cnc1OC [Compound 918]
1 to 10,1 to 10,CNc1ccnc(Nc2ccc(OC)c(OC[C@@H](CN3CCCC3)OC)c2)n1 [Compound 919]
0.1 to 1,0.1 to 1,CNc1ccnc(Nc2ccc(OC)c(OC[C@H](CN3CCCC3)OC)c2)n1 [Compound 920]
> 10,> 10,CNC[C@H](COc1cc(Nc2nccc(NC)n2)ccc1OC)OC [Compound 921]
1 to 10,1 to 10,CNC[C@@H](COc1cc(Nc2nccc(NC)n2)ccc1OC)OC [Compound 922]
0.1 to 1,< 0.1,CCN1CC[C@@H](COc2cc(Nc3nccc(NC)n3)ccc2OC)C1 [Compound 927]
0.1 to 1,< 0.1,CNc1ccnc(Nc2ccc(OC)c(OC[C@@H]3CCN(C4CC4)C3)c2)n1 [Compound 928]
> 10,> 10,CNc1ccnc(Nc2ccc(OC)c(OC[C@H]3CN(C)CCO3)c2)n1 [Compound 931]
